US20060004086A1, “Method of reducing Abeta42 and treating diseases” (Mayo Foundation for Medical Education and Research, priority 2000, published 2006)
Like-named read-outs stand apart in the source and are kept apart here.

System: Aβ42 secretion
Experiment: Primary in vitro screen, CHO-APP695NL,I,his cells, end-specific Aβ40 and Aβ42 ELISAs
Type: cell-based, Chinese hamster
Settings: for activity at 100 µM / activity at 10 µM: Cricetulus griseus, 6 h; for selective reduction of Aβ42 levels in the primary screen: 10 μM or 100 μM, classification on a 20% change
Protocol: Aβ40 and Aβ42 levels in culture supernatants were determined for each time points using ELISA.
In a primary screen, the effects of NSAIDs on Aβ42 secretion by a CHO cell line that expressed APP(CHO-APP695NL,I,his) were examined. Duplicate cell cultures were treated with (a) a vehicle, (b) 10 μM of NSAID, or (c) 100 μM of NSAID.
To determine Aβ40 and Aβ42 levels, six-hour culture supernatants taken from cells grown in a single well of a twenty-four-well plate were used in end-specific Aβ40 and Aβ42 ELISAs (Suzuki, et al. (1994) Sci 264:[…]). Aβ40 and Aβ42 levels of cultures treated with NSAID were compared with those of cultures treated with the vehicle alone. […] NSAIDs that caused either selective reduction of Aβ42 levels or reduction in both Aβ40 and Aβ42 levels are subjected to a secondary screen.

[1] = 10 μM, six-hour culture supernatants
[2] = 100 μM, six-hour culture supernatants, read-out: % Control % Aβ42
[3] = 100 μM, six-hour culture supernatants, read-out: % Control Aβ40
[4] = 100 μM, six-hour culture supernatants, read-out: % Control Aβ42
[5] = 10 μM, six-hour culture supernatants, read-out: % Control % Aβ42
[6] = 10 μM, six-hour culture supernatants, read-out: % Control Aβ40
[7] = 10 μM, six-hour culture supernatants, read-out: % Control Aβ42
[8] = 100 μM, six-hour culture supernatants

| SMILES | activity at 100 µM [2] [%] | activity at 100 µM [3] [%] | activity at 100 µM [4] [%] | also measured |
| --- | --- | --- | --- | --- |
| CCCCC#CCSc1ccccc1OC(C)=O [APHS] |  |  |  | % Control % Aβ42 [1]: 178%; % Control Aβ40 [1]: 50%; % Control Aβ42 [1]: 114% |
| COc1ccc2c(c1)c(CC(=O)OCC(=O)O)c(C)n2C(=O)c1ccc(Cl)cc1 [Acemetacin] | 93 | 110 | 101 |  |
| CN(C)CCCOc1nn(Cc2ccccc2)c2ccccc12 [Benzydamine] | 132 | 90 | 128 |  |
| CC(C(=O)O)c1ccc2c(c1)[nH]c1ccc(Cl)cc12 (stereo not drawn) [Carprofen] | 86 | 58 | 48 |  |
| CCc1cccc2c3c([nH]c12)C(CC)(CC(=O)O)OCC3 (stereo not drawn) [Etodolac] | 120 | 85 | 109 |  |
| O=C(O)CCC(=O)c1ccc(-c2ccccc2)cc1 [Fenbufen] | 107 | 100 | 109 |  |
| CC(C(=O)O)c1cccc(Oc2ccccc2)c1 (stereo not drawn) [Fenoprofen, fenoprofen] | 63 | 102 | 60 |  |
| O=C(O)c1ccccc1Nc1cccc(C(F)(F)F)c1 [Flufenamic Acid, flufenamic acid] |  |  |  | selective reduction of Aβ42 levels in the primary screen: selectively reduced Aβ42 levels; activity at 10 µM [5]: 70%; activity at 10 µM [6]: 99%; activity at 10 µM [7]: 64% |
| Cc1ccc(C(C)C)cc2c(C)ccc1-2 [Guaiazulene] | 156 | 70 | 124 |  |
| CC(C(=O)O)c1ccc(N2Cc3ccccc3C2=O)cc1 (stereo not drawn) [Indoprofen] | 107 | 116 | 126 |  |
| Cc1cc(NC(=O)C2=C(O)c3ccccc3S(=O)(=O)N2C)no1 [Isoixicam] |  |  |  | % Control % Aβ42 [8]: 103%; % Control Aβ40 [8]: 109%; % Control Aβ42 [8]: 112% |
| CC(C(=O)O)c1cccc(C(=O)c2ccccc2)c1 (stereo not drawn) [Ketoprofen] | 117 | 88 | 107 |  |
| O=C(c1ccccc1)c1ccc2n1CCC2C(=O)O (stereo not drawn) [Ketorlolac] |  |  |  | activity at 10 µM [5]: 142%; activity at 10 µM [6]: 84%; activity at 10 µM [7]: 131% |
| Cc1cccc(Nc2ccccc2C(=O)O)c1C [Mefenamic Acid, mefenamic acid] | 72 | 116 | 78 | selective reduction of Aβ42 levels in the primary screen: selectively reduced Aβ42 levels |
| O=C(O)c1cc([N+](=O)[O-])ccc1NCCCc1ccccc1 [NPPB, 5-nitro-2-(3-phenylpropylamino)benzoic acid] |  |  |  | activity at 10 µM [5]: 66%; activity at 10 µM [6]: 81%; activity at 10 µM [7]: 48% |
| COc1ccc2cc(CCC(C)=O)ccc2c1 [Nabumetone] | 70 | 157 | 103 |  |
| CN1C(C(=O)Nc2ccccn2)=C(O)c2ccccc2S1(=O)=O [Piroxicam] | 75 | 142 | 101 |  |
| Oc1ccc(C=Cc2cc(O)cc(O)c2)cc1 [Resveratrol] |  |  |  | activity at 10 µM [5]: 130%; activity at 10 µM [6]: 75%; activity at 10 µM [7]: 107% |
| COc1ccc(-n2nc(C(F)(F)F)cc2-c2ccc(Cl)cc2)cc1 [SC560] |  |  |  | activity at 10 µM (read-out: % Control % Aβ42): 227%; activity at 10 µM (read-out: % Control Aβ40): 47%; activity at 10 µM (read-out: % Control Aβ42): 166% |
| CC(C(=O)O)c1ccc(C(=O)c2cccs2)cc1 (stereo not drawn) [Suprofen] | 102 | 126 | 129 |  |
| CN1C(C(=O)Nc2ccccn2)=C(O)c2sccc2S1(=O)=O [Tenoxicam] | 112 | 80 | 92 |  |
| Cc1c(Cl)cccc1Nc1ccccc1C(=O)O [Tolfenamic Acid, tolfenamic acid] | 110 | 84 | 95 | selective reduction of Aβ42 levels in the primary screen: did not |
